Test results: patent US11458138B2 (Novartis AG, priority 2017, dated 2022)

Experiments:
LATS1 = LATS1 (Homo sapiens (Human), UniProt O95835); test: LATS1 biochemical assay (Table 1A, Compound Examples 1-290; method in the earlier part)
[1] = system: YAP nuclear translocation in HaCaT cells; test: YAP Translocation Assay (HaCaT Cells); format: cell-based, human; details: Homo sapiens, 24 hours
Description: HaCaT cells were suspended at 0.4×10^6 cells/ml in DMEM+10% FBS with penicillin-streptomycin-glutamine. 50 μl of cells were dispensed into 384-well clear bottom assay plates (20,000 cells/well), and incubated overnight at 37° C. 100 nL test compound was transferred into the assay wells containing HaCaT cells using ECHO (Labcyte). After 24 hours incubation at 37° C., 7 μL of 32% PFA was dispensed into each well and incubated for 45 minutes at room temperature. Plates were washed 3 times with PBS, leaving 20 μL of PBS per well, then treated with 0.1% Triton and 1.5% BSA in PBS for 45 minutes at room temperature. Plates were washed for 5 times with PBS, leaving 20 μL of PBS per well. […] Plates were further washed 3 time with PBS, sealed and imaged on the high-content Opera imaging system (PerkinElmer).

Chain of LATS1 (O95835 whole entry, looked up): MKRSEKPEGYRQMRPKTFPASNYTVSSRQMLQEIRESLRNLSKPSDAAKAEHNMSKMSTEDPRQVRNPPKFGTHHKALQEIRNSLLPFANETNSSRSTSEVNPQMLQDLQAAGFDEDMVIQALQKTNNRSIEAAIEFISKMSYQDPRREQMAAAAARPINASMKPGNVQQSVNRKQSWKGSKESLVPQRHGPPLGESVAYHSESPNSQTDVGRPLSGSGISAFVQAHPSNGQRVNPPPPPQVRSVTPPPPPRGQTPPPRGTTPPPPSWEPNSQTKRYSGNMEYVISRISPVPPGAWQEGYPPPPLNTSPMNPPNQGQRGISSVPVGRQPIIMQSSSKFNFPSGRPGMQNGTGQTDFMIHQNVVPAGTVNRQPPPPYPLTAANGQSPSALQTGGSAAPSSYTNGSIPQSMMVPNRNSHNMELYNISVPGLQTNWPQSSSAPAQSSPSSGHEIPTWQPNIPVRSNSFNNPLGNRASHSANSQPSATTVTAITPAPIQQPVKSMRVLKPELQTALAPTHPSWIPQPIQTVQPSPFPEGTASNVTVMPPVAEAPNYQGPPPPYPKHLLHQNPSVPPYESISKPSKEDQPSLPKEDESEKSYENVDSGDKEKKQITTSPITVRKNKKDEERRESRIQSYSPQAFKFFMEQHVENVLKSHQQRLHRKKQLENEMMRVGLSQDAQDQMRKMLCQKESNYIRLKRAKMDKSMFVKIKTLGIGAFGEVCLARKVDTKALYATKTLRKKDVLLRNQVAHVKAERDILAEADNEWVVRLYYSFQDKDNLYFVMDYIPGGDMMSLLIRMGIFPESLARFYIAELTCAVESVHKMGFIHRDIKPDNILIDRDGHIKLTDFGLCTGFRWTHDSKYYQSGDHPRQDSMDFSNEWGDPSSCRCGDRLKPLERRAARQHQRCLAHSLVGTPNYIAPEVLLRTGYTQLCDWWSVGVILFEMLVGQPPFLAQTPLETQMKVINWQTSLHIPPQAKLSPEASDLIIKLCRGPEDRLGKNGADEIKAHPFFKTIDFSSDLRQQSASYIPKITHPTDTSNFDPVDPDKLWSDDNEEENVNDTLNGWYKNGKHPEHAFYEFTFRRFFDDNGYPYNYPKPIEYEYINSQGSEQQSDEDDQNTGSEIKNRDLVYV
Chain of LATS1 (Q7L9L4 whole entry partner, looked up): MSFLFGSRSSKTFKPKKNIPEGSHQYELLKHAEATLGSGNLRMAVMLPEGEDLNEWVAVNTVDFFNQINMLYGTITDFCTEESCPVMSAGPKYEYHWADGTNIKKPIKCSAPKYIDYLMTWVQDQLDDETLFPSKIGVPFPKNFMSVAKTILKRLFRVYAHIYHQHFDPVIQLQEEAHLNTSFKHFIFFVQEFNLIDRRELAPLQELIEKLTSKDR

Row | IC50 (LATS1) | Compound | EC50 [1]
1 | 30 nM | CC(C)(COCC(=O)O)Nc1nc(-c2ccncc2)nc2cnccc12 [Example 25, 2-(2-methyl-2-{[2-(pyridin-4-yl)pyrido[3,4-d]pyrimidin-4-yl]amino}propoxy)acetic acid] | > 20000 nM
2 | 35 nM | OCCC(Nc1nc(-c2ccncc2)nc2cnccc12)C(F)(F)F (stereo not drawn) [Example 27, 4,4,4-trifluoro-3-{[2-(pyridin-4-yl)pyrido[3,4-d]pyrimidin-4-yl]amino}butan-1-ol] | > 14400 nM
3 | 36 nM | CC(C)(CS(C)(=O)=O)Nc1nc(-c2ccncc2)nc2cnccc12 [Example 28, N-(1-methanesulfonyl-2-methylpropan-2-yl)-2-(pyridin-4-yl)pyrido[3,4-d]pyrimidin-4-amine] | > 20000 nM
4 | 36 nM | C[C@](Nc1nc(-c2ccncc2)nc2cnccc12)(C(=O)O)C(F)(F)F [Example 29, (2S)-3,3,3-trifluoro-2-methyl-2-{[2-(pyridin-4-yl)pyrido[3,4-d]pyrimidin-4-yl]amino}propanoic acid] | > 20000 nM
5 | 41 nM | C[C@@](Nc1nc(-c2ccncc2)nc2cnccc12)(C(=O)O)C(F)(F)F [Example 31, (2R)-3,3,3-trifluoro-2-methyl-2-{[2-(pyridin-4-yl)pyrido[3,4-d]pyrimidin-4-yl]amino}propanoic acid] | > 20000 nM
6 | 95 nM | CC(C)(Nc1nc(-c2ccncc2)nc2cnccc12)C(=O)O [Example 34, 2-methyl-2-{[2-(pyridin-4-yl)pyrido[3,4-d]pyrimidin-4-yl]amino}propanoic acid] | > 20000 nM
7 | 118 nM | OCCOCCNc1nc(-c2ccncc2)nc2cnccc12 [Example 35, 2-(2-{[2-(pyridin-4-yl)pyrido[3,4-d]pyrimidin-4-yl]amino}ethoxy)ethan-1-ol] | > 20000 nM
8 | 199 nM | OCC(CO)(CO)Nc1nc(-c2ccncc2)nc2cnccc12 [Example 36, 2-(hydroxymethyl)-2-{[2-(pyridin-4-yl)pyrido[3,4-d]pyrimidin-4-yl]amino}propane-1,3-diol] | > 20000 nM
9 | 233 nM | CC(C)(CC(=O)O)NC(=O)CC(C)(C)Nc1nc(-c2ccncc2)nc2cnccc12 [Example 37, 3-methyl-3-(3-methyl-3-{[2-(pyridin-4-yl)pyrido[3,4-d]pyrimidin-4-yl]amino}butanamido) butanoic acid] | > 6670 nM
10 | 244 nM | CN(C)C1(CNc2nc(-c3ccncc3)nc3cnccc23)CCOCC1 [Example 39, N-{[4-(dimethylamino)oxan-4-yl]methyl}-2-(pyridin-4-yl)pyrido[3,4-d]pyrimidin-4-amine] | > 11600 nM
11 | 711 nM | CC(C)(Nc1nc(-c2ccncc2)nc2cnccc12)C12CC3CC(CC(C3)C1)C2 [Example 42, N-[2-(adamantan-1-yl)propan-2-yl]-2-(pyridin-4-yl)pyrido[3,4-d]pyrimidin-4-amine] | 11600 nM
12 | > 1970 nM | CC(C)C(=O)Nc1nc(-c2ccncc2)nc2cnccc12 [Example 43, 2-methyl-N-[2-(pyridin-4-yl)pyrido[3,4-d]pyrimidin-4-yl]propanamide] | > 20000 nM
13 | > 2500 nM | CC(C)S(=O)(=O)Nc1nc(-c2ccncc2)nc2cnccc12 [Example 45, N-[2-(pyridin-4-yl)pyrido[3,4-d]pyrimidin-4-yl]propane-2-sulfonamide] | > 20000 nM
14 | 40 nM | CN[C@@H]1CCCC[C@H]1N(C)c1nc(-c2ccncc2)nc2cnccc12 [Example 53, (1R,2R)-1-N,2-N-dimethyl-1-N-[2-(pyridin-4-yl)pyrido[3,4-d]pyrimidin-4-yl]cyclohexane-1,2-diamine] | > 20000 nM
15 | 78 nM | COC(=O)[C@H]1C[C@@H](Nc2nc(-c3ccncc3)nc3cnccc23)C1 [Example 54, methyl (1s,3s)-3-{[2-(pyridin-4-yl)pyrido[3,4-d]pyrimidin-4-yl]amino}cyclobutane-1-carboxylate] | > 20000 nM
16 | 1440 nM | O=C(O)C1CC(Nc2nc(-c3ccncc3)nc3cnccc23)C1 (stereo not drawn) [Example 57, (1s,3s)-3-{[2-(pyridin-4-yl)pyrido[3,4-d]pyrimidin-4-yl]amino}cyclobutane-1-carboxylic acid] | > 20000 nM
17 | 1 nM | CC1(Nc2nc(-c3ccncc3)nc3cnccc23)CCC1 [Example 60, N-(1-methylcyclobutyl)-2-(pyridin-4-yl)pyrido[3,4-d]pyrimidin-4-amine] | 440 nM
18 | 2 nM | CC(CO)(Nc1nc(-c2ccncc2)nc2cnccc12)C(F)(F)F (stereo not drawn) [Example 67, 3,3,3-trifluoro-2-methyl-2-{[2-(pyridin-4-yl)pyrido[3,4-d]pyrimidin-4-yl]amino}propan-1-ol] | 685 nM
19 | 126 nM | Cc1ccc(Nc2nc(-c3ccncc3)nc3cnccc23)cc1 [Example 90, N-(4-methylphenyl)-2-(pyridin-4-yl)pyrido[3,4-d]pyrimidin-4-amine] | > 20000 nM

Row | IC50 (LATS1) | Compound | EC50 [1]
20 | 304 nM | c1ccc(Nc2nc(-c3ccncc3)nc3cnccc23)cc1 [Example 92, N-phenyl-2-(pyridin-4-yl)pyrido[3,4-d]pyrimidin-4-amine] | > 20000 nM
21 | 809 nM | Cc1cccc(Nc2nc(-c3ccncc3)nc3cnccc23)c1 [Example 93, N-(3-methylphenyl)-2-(pyridin-4-yl)pyrido[3,4-d]pyrimidin-4-amine] | > 20000 nM
22 | 1150 nM | O=C(O)CCCCCNc1nc(-c2ccncc2)nc2cnccc12 [Example 94, 6-{[2-(pyridin-4-yl)pyrido[3,4-d]pyrimidin-4-yl]amino}hexanoic acid] | > 20000 nM
23 | > 1700 nM | Fc1ccc(Nc2nc(-c3ccncc3)nc3cnccc23)cc1 [Example 96, N-(4-fluorophenyl)-2-(pyridin-4-yl)pyrido[3,4-d]pyrimidin-4-amine] | > 20000 nM
24 | – | O=C(O)CCCNc1nc(-c2ccncc2)nc2cnccc12 [Example 97, 4-{[2-(pyridin-4-yl)pyrido[3,4-d]pyrimidin-4-yl]amino}butanoic acid] | > 20000 nM
25 | 1350 nM | CC(Nc1nc(-c2ccncc2)nc2cnccc12)c1ccccc1 (stereo not drawn) [Example 98, N-(1-phenylethyl)-2-(pyridin-4-yl)pyrido[3,4-d]pyrimidin-4-amine] | –
26 | 126 nM | COC(=O)CC1(Nc2nc(-c3ccncc3)nc3cnccc23)CC1 [Example 102, methyl 2-(1-{[2-(pyridin-4-yl)pyrido[3,4-d]pyrimidin-4-yl]amino}cyclopropyl)acetate] | –
27 | 235 nM | Cc1c(-c2nc(NC(C)(C)C)c3ccncc3n2)c2cccnc2n1S(=O)(=O)c1ccccc1 [Example 113, 2-[1-(benzenesulfonyl)-2-methyl-1H-pyrrolo[2,3-b]pyridin-3-yl]-N-tert-butylpyrido[3,4-d]pyrimidin-4-amine] | > 20000 nM
28 | 9 nM | CC(C)(O)CC(C)(C)Nc1nc(-c2c[nH]nc2C(F)(F)F)nc2cnccc12 [Example 119, 2,4-dimethyl-4-({2-[3-(trifluoromethyl)-1H-pyrazol-4-yl]pyrido[3,4-d]pyrimidin-4-yl}amino)pentan-2-ol] | 5180 nM
29 | 14 nM | CC(C)(O)COCC(C)(C)Nc1nc(-c2c[nH]nc2C(F)(F)F)nc2cnccc12 [Example 121, 2-methyl-1-[2-methyl-2-({2-[3-(trifluoromethyl)-1H-pyrazol-4-yl]pyrido[3,4-d]pyrimidin-4-yl}amino)propoxy]propan-2-ol] | 8170 nM
30 | 23 nM | CC(C)(O)CC(C)(C)Nc1nc(-c2ccncc2Cl)nc2cnccc12 [Example 125, 4-{[2-(3-chloropyridin-4-yl)pyrido[3,4-d]pyrimidin-4-yl]amino}-2,4-dimethylpentan-2-ol] | 8000 nM
31 | 53 nM | Clc1cnccc1-c1nc(NC2CCCC2)c2ccncc2n1 [Example 126, 2-(3-chloropyridin-4-yl)-N-cyclopentylpyrido[3,4-d]pyrimidin-4-amine] | > 20000 nM
32 | 4270 nM | CC1(Nc2nc(-c3ccnc(C(F)(F)F)c3)nc3cnccc23)CC1 [Example 150, N-(1-methylcyclopropyl)-2-[2-(trifluoromethyl)pyridin-4-yl]pyrido[3,4-d]pyrimidin-4-amine] | –
33 | > 10000 nM | CC1(Nc2nc(-c3ccnc(C#N)c3)nc3cnccc23)CC1 [Example 151, 4-{4-[(1-methylcyclopropyl)amino]pyrido[3,4-d]pyrimidin-2-yl}pyridine-2-carbonitrile] | –
34 | 98 nM | CN(c1nc(-c2ccnn2C)nc2cnccc12)C1(C)CC1 [Example 169, N-methyl-2-(1-methyl-1H-pyrazol-5-yl)-N-(1-methylcyclopropyl)pyrido[3,4-d]pyrimidin-4-amine] | –
35 | 189 nM | OCC1(Nc2nc(-c3cn[nH]c3)nc3cnccc23)CCC1 [Example 191, (1-{[2-(1H-pyrazol-4-yl)pyrido[3,4-d]pyrimidin-4-yl]amino}cyclobutyl)methanol] | –
36 | > 10000 nM | CC(Nc1nc(-c2ccnn2C)nc2cnccc12)c1ccncc1 (stereo not drawn) [Example 193, 2-(1-methyl-1H-pyrazol-5-yl)-N-[1-(pyridin-4-yl)ethyl]pyrido[3,4-d]pyrimidin-4-amine] | –
37 | > 10000 nM | CCn1cc(-c2nc(NCC(C)C)c3ccncc3n2)cn1 [Example 195, 2-(1-ethyl-1H-pyrazol-4-yl)-N-(2-methylpropyl)pyrido[3,4-d]pyrimidin-4-amine] | –
38 | 23 nM | CC(C)(CN)Nc1nc(-c2cn[nH]c2)nc2cnccc12 [Example 197, N-(1-amino-2-methylpropan-2-yl)-2-(1H-pyrazol-4-yl)pyrido[3,4-d]pyrimidin-4-amine] | –
